Measurements published in article PMC4503722, “Novel Phenotypic Outcomes Identified for a Public Collection of Approved Drugs from a Publicly Accessible Panel of Assays” (PLoS ONE, 2015).
Where two headings read alike, the source gives them in different places.

Legend:
INS-1E cells [1] = format: cell-based, rat; conditions: 0.1 mM glucose; for 0.1mMGluc_INS1E SecretionMod Act IC50/EC50: assay number 9
[2] = system: tonic K+ channel activity in INS-1E cells; assay: cells; format: cell-based, rat; conditions: for 0.1mMGluc_INS1E FluxOR IC50/EC50: assay number 10; for 0.1mMGluc_INS1E FluxOR IC50/EC50 / IC50/EC50, 0.1mMGluc_INS1E FluxOR (assay number 10): 0.1 mM glucose
INS-1E cells [3] = assay: cells; format: cell-based, rat; conditions: for 5mMGluc_INS1E SecretionMod IC50/EC50: assay number 8; for 5mMGluc_INS1E SecretionMod IC50/EC50 / IC50/EC50, 5mMGluc_INS1E SecretionMod (assay number 8): 5 mM glucose; for EC50: Rattus norvegicus, INS-1E
HeLa cells = assay: cells; format: cell-based; conditions: for Hela CellCycMod PI 2N IC50/EC50: assay number 14; for Hela CellCycMod PI S Phase IC50/EC50: assay number 15; for Hela CellCycMod PI 4N IC50/EC50: assay number 16; for Hela CellCycMod PI MI IC50/EC50: assay number 17; for Hela CellCycMod PI Cell Number IC50/EC50: assay number 18
DLD-1 = assay: cells; format: cell-based
SUR2/Kir6.2 = conditions: read-out: SUR2/Kir6.2 inhibition IC50; cited from earlier work
HCT116 = assay: cells; format: cell-based
[4] = system: endothelial tube formation in co-cultures of ECFCs and ADSCs treated with VEGF; assay: cells; format: cell-based, human; conditions: Homo sapiens, read-out: Anti-Angio IC50
[5] = system: HCT116 cells treated with a GSK3β inhibitor; assay: cells; format: cell-based; conditions: Homo sapiens, HCT-116, 72 h, read-out: HCT-116 (GSK3β) viab. IC50
SW480 = assay: cells; format: cell-based
NCI-H716 cells = assay: cells; format: cell-based, Human; conditions: Homo sapiens, NCI-H716, read-out: GLP1 sec. EC50
RKO = assay: cells; format: cell-based; conditions: assay number 29; basal
SNU-C1 = assay: cells; format: cell-based; conditions: assay number 30; basal
Colo320 = assay: cells; format: cell-based; conditions: assay number 27; basal
HT-29 = assay: cells; format: cell-based; conditions: assay number 28; basal
[6] = AE BONE PAIN, FAERS, ref [45], cited from earlier work
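Throughout, for 5mMGluc INS1E SecretionMod IC50/EC50: secreted insulin quantified by homogeneous immunoassay.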
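Throughout, for IC50/EC50, 5mMGluc INS1E SecretionMod (assay number 8): secreted insulin quantified by homogeneous immunoassay.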

CCCNCC(O)COc1ccccc1C(=O)CCc1ccccc1 (stereo not shown) [NCGC00015819-15]
0.1mMGluc_INS1E SecretionMod Act IC50/EC50 (INS-1E cells [1]): > 33.33 µM
0.1mMGluc_INS1E FluxOR IC50/EC50 [2]: 5.346 µM
5mMGluc_INS1E SecretionMod IC50/EC50 (INS-1E cells [3]): 4.919 µM
Hela CellCycMod PI 2N IC50/EC50 (HeLa cells): > 10 µM
Hela CellCycMod PI S Phase IC50/EC50 (HeLa cells): > 10 µM
Hela CellCycMod PI 4N IC50/EC50 (HeLa cells): > 10 µM
Hela CellCycMod PI MI IC50/EC50 (HeLa cells): > 10 µM
Hela CellCycMod PI Cell Number IC50/EC50 (HeLa cells): > 10 µM

CN(C)CCC=C1c2ccccc2CCc2ccccc21.Cl [NCGC00015095-15]
IC50/EC50, 0.1mMGluc_INS1E SecretionMod Act (assay number 9) (INS-1E cells [1]): > 33.33 µM
IC50/EC50, 0.1mMGluc_INS1E FluxOR (assay number 10) [2]: 6.243 µM
IC50/EC50, 5mMGluc_INS1E SecretionMod (assay number 8) (INS-1E cells [3]): 2.999 µM
IC50/EC50, Hela CellCycMod PI 2N (assay number 14) (HeLa cells): > 10 µM
IC50/EC50, Hela CellCycMod PI 4N (assay number 16) (HeLa cells): > 10 µM
IC50/EC50, Hela CellCycMod PI Cell Number (assay number 18) (HeLa cells): > 10 µM
IC50/EC50, Hela CellCycMod PI MI (assay number 17) (HeLa cells): > 10 µM
IC50/EC50, Hela CellCycMod PI S Phase (assay number 15) (HeLa cells): > 10 µM

CCN(CC)CCOc1ccccc1C(=O)CCc1ccccc1 [NCGC00160484-02]
IC50/EC50, 0.1mMGluc_INS1E SecretionMod Act (assay number 9) (INS-1E cells [1]): > 33.33 µM
IC50/EC50, 0.1mMGluc_INS1E FluxOR (assay number 10) [2]: 6.739 µM
IC50/EC50, 5mMGluc_INS1E SecretionMod (assay number 8) (INS-1E cells [3]): 3.892 µM
IC50/EC50, Hela CellCycMod PI 2N (assay number 14) (HeLa cells): > 10 µM
IC50/EC50, Hela CellCycMod PI 4N (assay number 16) (HeLa cells): > 10 µM
IC50/EC50, Hela CellCycMod PI Cell Number (assay number 18) (HeLa cells): > 10 µM
IC50/EC50, Hela CellCycMod PI MI (assay number 17) (HeLa cells): > 10 µM
IC50/EC50, Hela CellCycMod PI S Phase (assay number 15) (HeLa cells): > 10 µM

CCCNCC(O)COc1ccccc1C(=O)CCc1ccccc1 (stereo not shown) [propafenone, reference compound]
IC50 (DLD-1; Homo sapiens, DLD-1, 72 h, read-out: DLD-1 viab. IC50): > 20 µM
IC50 (SUR2/Kir6.2): 2200 nM
IC50 (HCT116; Homo sapiens, HCT-116, 72 h, read-out: HCT-116 viab. IC50): > 20 µM
IC50 ([2]; Rattus norvegicus, INS-1E, read-out: K+ channel assay IC50): 5.4 µM
EC50 (INS-1E cells [3]; read-out: Ins. sec. EC50): 4.9 µM
EC50 (INS-1E cells [3]; read-out: Insulin Secretion): 4.92 µM
IC50 [4]: > 10 µM
IC50 [5]: > 20 µM
EC50 (HeLa cells; Homo sapiens, HeLa, read-out: CellCycle G2/M): > 10 µM
IC50 (SW480; Homo sapiens, SW480, 72 h, read-out: SW480 viab. IC50): > 20 µM
EC50 (NCI-H716 cells): > 10 µM

CN(C)CCOC(c1ccccc1)c1ccc(Br)cc1 (stereo not shown) [NCGC00249891-01]
Basal_Viability ATP DLD-1 IC50/EC50 (DLD-1; assay number 23, basal): > 20 µM
0.1mMGluc_INS1E SecretionMod Act IC50/EC50 (INS-1E cells [1]): > 33.33 µM
Basal_Viability ATP HCT116 IC50/EC50 (HCT116; assay number 25, basal): > 20 µM
0.1mMGluc_INS1E FluxOR IC50/EC50 [2]: 10.9665 µM
5mMGluc_INS1E SecretionMod IC50/EC50 (INS-1E cells [3]): 2.767 µM
Basal_Viability ATP RKO IC50/EC50 (RKO): > 20 µM
Basal_Viability ATP SNU-C1 IC50/EC50 (SNU-C1): 3.0987 µM
Hela CellCycMod PI 2N IC50/EC50 (HeLa cells): > 10 µM
Hela CellCycMod PI S Phase IC50/EC50 (HeLa cells): > 10 µM
Hela CellCycMod PI 4N IC50/EC50 (HeLa cells): > 10 µM
Hela CellCycMod PI MI IC50/EC50 (HeLa cells): > 10 µM
Hela CellCycMod PI Cell Number IC50/EC50 (HeLa cells): > 10 µM
Basal_Viability ATP SW480 IC50/EC50 (SW480; assay number 24, basal): > 20 µM
Basal_Viability ATP Colo 320 IC50/EC50 (Colo320): > 20 µM
Basal_Viability ATP HT-29 IC50/EC50 (HT-29): 17.0256 µM

Cc1ccc(S(=O)(=O)NC(=O)NN2CC3CCCC3C2)cc1 (stereo not shown) [NCGC00095107-09]
0.1mMGluc_INS1E SecretionMod Act IC50/EC50 (INS-1E cells [1]): > 33.33 µM
0.1mMGluc_INS1E FluxOR IC50/EC50 [2]: 0.6403 µM
5mMGluc_INS1E SecretionMod IC50/EC50 (INS-1E cells [3]): 1.834 µM
Hela CellCycMod PI 2N IC50/EC50 (HeLa cells): > 10 µM
Hela CellCycMod PI S Phase IC50/EC50 (HeLa cells): > 10 µM
Hela CellCycMod PI 4N IC50/EC50 (HeLa cells): > 10 µM
Hela CellCycMod PI MI IC50/EC50 (HeLa cells): > 10 µM
Hela CellCycMod PI Cell Number IC50/EC50 (HeLa cells): > 10 µM

B1: Pegfilgrastim: Drug A generic name in the FAERS table (protein, UniProt P09919 31-207, looked up)
Granulocyte …: TPLGPASSLPQSFLLKCLEQVRKIQGDGAALQEKLVSECATYKLCHPEELVLLGHSLGIPWAPLSSCPSQALQLAGCLSQLHSGLFLYQGLLQALEGISPELGPTLDTLQLDVADFATTIWQQMEELGMAPALQPTQGAMPAFASAFQRRAGGVLVASHLQSFLEVSYRVLRHLAQP
modifications: pegfilgrastim; PEG; N-terminal Met
Adjusted Z-Score ([6]; Drug A with vs without methotrexate): -2.755
# of Specific AE Occurrence With Drug A With Drug B ([6]; with methotrexate): 13
# of Specific AE Occurrence With Drug A Without Drug B ([6]; without methotrexate): 641
